Reference: patent US10793557B2, “Sting agonist compounds” (Merck Sharp & Dohme Corp., priority 2018, dated 2020)

Experiments:
[1] = test system: secretion of interferon-beta from THP1 cells; assay: IFN-β secretion in THP1 cell culture (5 h); format: cell-based; conditions: Homo sapiens, THP-1, 5 h, 30 uM cGAMP = 100%; for activation at 3 µM: compound at 3 uM, read-out: % Effect relative to 2′3′-cGAMP (@ 3 uM); for activation at 30 µM: compound at 30 μM, read-out: % Effect at 30 μM relative to 2′3′-cGAMP
How it was run: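 IFN-β in supernatant measured by AlphaLISA after a 5 h, 37 °C incubation of THP1 cells with compound (10 concentrations, 30000 down to 1.5 nM, 0.3% DMSO) in low-serum RPMI. Values scaled between DMSO and 30 uM cGAMP controls; 4-parameter curve fit yields EC50.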

full-length HAQ STING = molecular target: T1, full-length HAQ STING (Homo sapiens, UniProt Q86WV6, G230A/H232R/R293Q/R71H); assay: 3H-cGAMP filtration binding assay (HAQ STING); conditions: competition with tritiated cGAMP, HAQ STING membrane
T1 construct: AviTag (after GG linker) (C); HRV3C cleavage site (after GS linker) (C); HIS8 (C); made in house; host or cells: Trichoplusia ni (Hi-Five) insect cells infected with baculovirus (virus generated and amplified in Sf21 cells); used as a washed membrane preparation
T1 sequence (Q86WV6 with tags, fused parts or gaps R71H/G230A/H232R/R293Q): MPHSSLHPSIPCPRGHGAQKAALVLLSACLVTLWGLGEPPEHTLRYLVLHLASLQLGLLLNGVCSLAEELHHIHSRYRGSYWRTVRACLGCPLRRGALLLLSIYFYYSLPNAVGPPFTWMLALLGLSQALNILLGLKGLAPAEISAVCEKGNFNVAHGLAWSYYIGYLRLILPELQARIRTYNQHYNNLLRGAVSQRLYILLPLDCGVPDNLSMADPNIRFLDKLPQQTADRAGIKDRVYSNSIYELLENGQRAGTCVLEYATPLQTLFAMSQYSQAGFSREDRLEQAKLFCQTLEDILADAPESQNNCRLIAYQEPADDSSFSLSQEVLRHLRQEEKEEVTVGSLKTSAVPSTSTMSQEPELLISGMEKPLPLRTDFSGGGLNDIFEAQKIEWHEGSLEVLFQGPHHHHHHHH
How it was run: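 Hi-Five (T. ni) membranes overexpressing the STING variant (2.2 ug/ml working) preincubated with compound 60 min at RT in PBS, then [3H]cGAMP (8 nM working stock) added for 60 min at RT. Bound radioactivity captured on GF/B filters and counted by scintillation; EC50 from 4-parameter fit of control-normalized activity.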

full-length WT STING = molecular target: T2, full-length WT STING (Homo sapiens, UniProt Q86WV6, H232R); assay: 3H-cGAMP filtration binding assay (WT STING); conditions: competition with tritiated cGAMP, WT STING membrane
T2 construct: AviTag (after gg linker) (C); HRV3C cleavage site (after gs linker) (C); HIS8 (C); made in house; host or cells: Trichoplusia ni (Hi-Five) insect cells infected with baculovirus (virus generated and amplified in Sf21 cells); used as a washed membrane preparation
T2 sequence (Q86WV6 with tags, fused parts or gaps H232R): as the sequence (Q86WV6 with tags, fused parts or gaps R71H/G230A/H232R/R293Q) above, with H71R, A230G, Q293R counted along it
How it was run: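 EC50 values come from 4-parameter fits of remaining filter-bound tritium versus log concentration (10-point, 1:3 dilution). Insect-cell membranes carrying full-length WT STING were incubated 60 min at RT with compound and tritiated cGAMP (16 nM working stock) before filtration.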

SMILES	EC50 (full-length HAQ STING) [nM]	EC50 (full-length WT STING) [nM]	activation at 3 µM [1] [%]	activation at 30 µM [1] [%]
COc1cc2sc(C(=O)CCC(=O)O)cc2cc1OCCc1nc2cc(C(=O)CCC(=O)O)sc2cc1OC [Example 7, 4-(5-(2-((2-(3-carboxypropanoyl)-6-methoxybenzo [b]thiophen-5-yl)oxy)ethyl)-6-methoxythieno[3,2-b]pyridin-2-yl)-4-oxobutanoic acid]	17	71		97
COc1cc2sc(C(=O)C[C@H](C)C(=O)O)cc2cc1CCNc1cc2cc(C(=O)C[C@H](C)C(=O)O)sc2cc1OC [Example 60, (2S)-4-{5-[2-({2-[(3S)-3-carboxybutanoyl]-6-methoxy-1-benzothiophen-5-yl}amino)ethyl]-6-methoxy-1-benzothiophen-2-yl}-2-methyl-4-oxobutanoic acid]	19	67		106
COc1cc2sc(C(=O)C[C@H](C)C(=O)O)cc2nc1OCCOc1c(OC)cc2sc(C(=O)CCC(=O)O)cc2c1F [Example 20, (S)-4-(5-(2-((2-(3-carboxypropanoyl)-4-fluoro-6-methoxybenzo[b]thiophen-5-yl)oxy)ethoxy)-6-methoxythieno[3,2-b]pyridin-2-yl)-2-methyl-4-oxobutanoic acid]	7	24		63
COc1cc2sc(C(=O)C[C@H](C)C(=O)O)cc2cc1OCCOc1ccc2sc(C(=O)CCC(=O)O)cc2c1 [Example 54, (S)-4-(5-(2-((2-(3-carboxypropanoyl)benzo[b]thiophen-5-yl)oxy)ethoxy)-6-methoxybenzo[b]thiophen-2-yl)-2-methyl-4-oxobutanoic acid]	804	3080		9
COc1cc2sc(C(=O)C[C@H](C)C(=O)O)cc2c(F)c1OCCCCOc1c(OC)cc2sc(C(=O)C[C@H](C)C(=O)O)cc2c1Br [Example 131, (S)-4-(5-(4-((4-bromo-2-((S)-3-carboxybutanoyl)-6-methoxybenzo[b]thiophen-5-yl)oxy)butoxy)-4-fluoro-6-methoxybenzo[b]thiophen-2-yl)-2-methyl-4-oxobutanoic acid]	25	242	38	
COc1cc2sc(C(=O)CCC(=O)O)cc2cc1OCCOc1nc2cc(C(=O)C[C@H](C)C(=O)O)sc2cc1OC [Example 17, (S)-4-(5-(2-((2-(3-carboxypropanoyl)-6-methoxybenzo [b]thiophen-5-yl)oxy)ethoxy)-6-methoxythieno[3,2-b]pyridin-2-yl)-2-methyl-4-oxobutanoic acid]	52	299		38
COc1cc2sc(C(=O)CCC(=O)O)cc2cc1OCCCOc1c(OC)cc2sc(C(=O)C[C@H](C)C(=O)O)cc2c1F [Example 39, (S)-4-(5-(3-((2-(3-carboxypropanoyl)-6-methoxybenzo [b]thiophen-5-yl)oxy)propoxy)-4-fluoro-6-methoxybenzo[b]thiophen-2-yl)-2-methyl-4-oxobutanoic acid]	1	2		75
COc1cc2sc(C(=O)CCC(=O)O)cc2cc1OCCCc1ccc2sc(C(=O)CCC(=O)O)cc2c1 [Example 6, 4-(5-(3-((2-(3-carboxypropanoyl)-6-methoxybenzo [b]thiophen-5-yl)oxy)propyl)benzo[b]thiophen-2-yl)-4-oxobutanoic acid]	53	206		106
COc1cc2sc(C(=O)CCC(N)=O)cc2cc1CCCc1cc2cc(C(=O)CCC(=O)O)sc2cc1OC [Example 30, 4-(5-(3-(2-(4-amino-4-oxobutanoyl)-6-methoxybenzo[b]thiophen-5-yl)propyl)-6-methoxybenzo [b]thiophen-2-yl)-4-oxobutanoic acid]	1000	7520		103

Continued, in another order:

EC50 (full-length HAQ STING) [nM]	EC50 (full-length WT STING) [nM]	SMILES	activation at 3 µM [1] [%]	activation at 30 µM [1] [%]
77	1040	COc1cc2sc(C(=O)C[C@H](C)C(=O)O)cc2c(F)c1OCCCOc1c(OC)cc2sc(CC[C@H](C)C(=O)O)cc2c1Cl [Example 151, (S)-4-(5-(3-((2-((S)-3-carboxybutyl)-4-chloro-6-methoxybenzo[b]thiophen-5-yl)oxy)propoxy)-4-fluoro-6-methoxybenzo[b]thiophen-2-yl)-2-methyl-4-oxobutanoic acid]	63	
2	23	COc1cc2sc(C(=O)CCC(=O)O)cc2nc1OCCOc1c(OC)cc2sc(C(=O)CCC(=O)O)cc2c1F [Example 81, 4-(5-(2-((2-(3-carboxypropanoyl)-4-fluoro-6-methoxybenzo[b]thiophen-5-yl)oxy)ethoxy)-6-methoxythieno[3,2-b]pyridin-2-yl)-4-oxobutanoic acid]		120
1	3	COc1cc2sc(C(=O)CCC(=O)O)cc2nc1CCCOc1c(OC)cc2sc(C(=O)CCC(=O)O)cc2c1F [Example 173]		127
4	46	COc1cc2sc(CCC(C)(C)C(=O)O)cc2c(F)c1OCCCOc1c(OC)cc2sc(C(=O)CC(C)(C)C(=O)O)cc2c1F [Example 149, 4-(5-(3-((2-(3-carboxy-3-methylbutyl)-4-fluoro-6-methoxybenzo[b]thiophen-5-yl)oxy)propoxy)-4-fluoro-6-methoxybenzo[b]thiophen-2-yl)-2,2-dimethyl-4-oxobutanoic acid]	70	
1	2	COc1cc2sc(CC[C@H](C)C(=O)O)cc2c(F)c1OCCCOc1c(OC)cc2sc(C(=O)C[C@H](C)C(=O)O)cc2c1F [Example 101, (S)-4-(5-(3-((2-((S)-3-carboxybutyl)-4-fluoro-6-methoxybenzo[b]thiophen-5-yl)oxy)propoxy)-4-fluoro-6-methoxybenzo[b]thiophen-2-yl)-2-methyl-4-oxobutanoic acid]		85
1	1	COc1cc2sc(C(=O)C[C@H](C)C(=O)O)cc2c(F)c1OCCCOc1c(O)cc2sc(C(=O)C[C@H](C)C(=O)O)cc2c1Cl [Example 185, (S)-4-(5-(3-((2-((S)-3-carboxybutanoyl)-4-chloro-6-hydroxybenzo[b]thiophen-5-yl)oxy)propoxy)-4-fluoro-6-methoxybenzo[b]thiophen-2-yl)-2-methyl-4-oxobutanoic acid]	122	
1	1	COc1cc2sc(C(=O)C[C@H](C)C(=O)O)cc2c(F)c1OCCCOc1c(O)cc2sc(C(=O)C[C@H](C)C(=O)O)cc2c1F [Example 188, (S)-4-(5-(3-((2-((S)-3-carboxybutanoyl)-4-fluoro-6-hydroxybenzo[b]thiophen-5-yl)oxy)propoxy)-4-fluoro-6-methoxybenzo[b]thiophen-2-yl)-2-methyl-4-oxobutanoic acid]	104	
